Measured values: paper PMC4980083 (JCI insight, 2016)

Key:
ERα = ERα (Homo sapiens, UniProt P03372); assay: ER transcriptional activity, ERE luciferase reporter; type: cell-based; conditions: estradiol induced
GR LBD = target: T1, GR LBD (Homo sapiens, UniProt P04150); assay: Fluorescence polarization competition binding, GR LBD
T1 sequence (P04150 524-758 limits assumed): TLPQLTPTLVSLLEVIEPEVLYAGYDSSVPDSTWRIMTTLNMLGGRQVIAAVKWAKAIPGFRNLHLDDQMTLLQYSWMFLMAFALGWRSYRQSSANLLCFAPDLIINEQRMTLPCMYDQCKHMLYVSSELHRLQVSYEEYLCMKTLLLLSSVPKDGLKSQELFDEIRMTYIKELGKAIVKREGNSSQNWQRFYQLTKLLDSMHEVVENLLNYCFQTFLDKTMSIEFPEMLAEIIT

PRβ = target: T2, PRβ (Homo sapiens, UniProt P06401); assay: PR transcriptional activity, PRE luciferase reporter; type: cell-based; conditions: 2 μM; progesterone 10 nM
T2 sequence (P06401 1-933): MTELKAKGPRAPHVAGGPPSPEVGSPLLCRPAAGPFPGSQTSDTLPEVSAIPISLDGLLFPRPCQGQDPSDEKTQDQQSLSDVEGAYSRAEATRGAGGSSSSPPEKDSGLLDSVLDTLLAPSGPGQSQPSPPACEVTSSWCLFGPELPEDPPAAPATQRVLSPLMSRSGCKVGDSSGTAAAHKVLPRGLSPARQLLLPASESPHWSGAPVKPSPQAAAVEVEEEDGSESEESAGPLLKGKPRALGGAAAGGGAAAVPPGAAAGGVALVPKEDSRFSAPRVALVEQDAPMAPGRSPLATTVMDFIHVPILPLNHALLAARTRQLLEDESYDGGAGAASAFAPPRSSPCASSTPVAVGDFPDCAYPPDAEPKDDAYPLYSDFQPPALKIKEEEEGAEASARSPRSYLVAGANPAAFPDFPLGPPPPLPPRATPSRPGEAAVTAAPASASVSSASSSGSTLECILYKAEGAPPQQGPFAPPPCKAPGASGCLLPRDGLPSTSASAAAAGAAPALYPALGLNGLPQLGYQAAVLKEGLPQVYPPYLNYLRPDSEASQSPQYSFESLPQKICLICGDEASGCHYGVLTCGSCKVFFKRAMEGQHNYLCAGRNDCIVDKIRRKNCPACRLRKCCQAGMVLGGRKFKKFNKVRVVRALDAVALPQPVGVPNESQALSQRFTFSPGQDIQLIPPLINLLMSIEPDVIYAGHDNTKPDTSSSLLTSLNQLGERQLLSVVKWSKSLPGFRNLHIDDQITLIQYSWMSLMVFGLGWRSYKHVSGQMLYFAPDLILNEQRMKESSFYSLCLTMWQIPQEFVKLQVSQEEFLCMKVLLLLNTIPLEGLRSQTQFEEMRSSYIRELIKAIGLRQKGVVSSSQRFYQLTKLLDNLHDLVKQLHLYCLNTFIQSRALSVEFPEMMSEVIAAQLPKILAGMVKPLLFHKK

DU145 cells = assay: DU145 proliferation/viability; type: cell-based, human; conditions: up to 10 times the IC50 required to reduce AR-dependent proliferation; 3 days
ER LBD = assay: Fluorescence polarization competition binding, ER LBD

Chain of ERα (P03372 whole entry, the tested form may be a part): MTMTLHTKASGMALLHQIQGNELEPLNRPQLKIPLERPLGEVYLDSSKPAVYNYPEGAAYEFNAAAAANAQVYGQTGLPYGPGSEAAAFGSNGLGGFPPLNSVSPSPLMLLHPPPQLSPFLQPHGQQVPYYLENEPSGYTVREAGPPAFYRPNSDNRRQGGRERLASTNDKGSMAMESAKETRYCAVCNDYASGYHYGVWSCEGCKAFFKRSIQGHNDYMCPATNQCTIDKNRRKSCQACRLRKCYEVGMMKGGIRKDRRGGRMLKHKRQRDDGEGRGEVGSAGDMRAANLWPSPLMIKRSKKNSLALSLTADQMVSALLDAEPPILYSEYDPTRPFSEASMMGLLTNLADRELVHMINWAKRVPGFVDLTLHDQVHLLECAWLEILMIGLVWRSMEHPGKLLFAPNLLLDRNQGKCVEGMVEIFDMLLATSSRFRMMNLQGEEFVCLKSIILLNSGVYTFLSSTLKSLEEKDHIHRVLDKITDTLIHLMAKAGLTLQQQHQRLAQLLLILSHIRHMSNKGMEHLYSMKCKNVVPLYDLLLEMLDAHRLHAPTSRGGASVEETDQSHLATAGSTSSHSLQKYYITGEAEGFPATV

## 15-IodoEPI002 [I-EPI-002]
ERα
  inhibition of ER transcriptional activity: did not inhibit
GR LBD
  competition for ligand binding to GR LBD: did not prevent ligand-binding
PRβ
  inhibition of PR transcriptional activity: did not inhibit
DU145 cells
  effect on proliferation or viability of DU145 cells: no effect
ER LBD
  competition for ligand binding to ER LBD: did not prevent ligand-binding
